≈ marks a conversion by molar mass, not a printed value. Where “and” joins values, the source holds several entries; their conditions need not be identical. Identical values can stand only once. Like-named read-outs stand apart in the source and are kept apart here.
Columns and labels:
[1] = Log D measurement (shake flask, pH 7.4 buffer / octanol); format: physicochemical; conditions: octanol/pH 7.4 buffer (shake flask), pH 7.4 buffer / water-saturated octanol, read-out: Experimental logD
Protocol: (§1) Each shake flask was agitated for 60 minutes at room temperature, then allowed to stand for 1 hour at room temperature. […] Absorbance was compared to that of a reference standard at the same absorbance maximum for a 1-2% solution of the same steroid in CH3OH, allowing for up to 10 nM maxima shift due to solvent effect.

[2] = Plasma protein binding assay (dialysis); format: in vitro ADME; conditions: both sexes; human plasma vs PBS pH 7.4, ca. 24 hours at 37° C.
[3] = Caco II permeability assay; conditions: human, Caco-2, pH 7.4
Bombyx mori EcR (BmEcR) = target: T1, Bombyx mori EcR (BmEcR) (Bombyx mori, UniProt P49881); assay: Two-hybrid gene switch assay, BmEcR in NIH3T3 cells
T1 sequence (P49881 352-589 limits assumed): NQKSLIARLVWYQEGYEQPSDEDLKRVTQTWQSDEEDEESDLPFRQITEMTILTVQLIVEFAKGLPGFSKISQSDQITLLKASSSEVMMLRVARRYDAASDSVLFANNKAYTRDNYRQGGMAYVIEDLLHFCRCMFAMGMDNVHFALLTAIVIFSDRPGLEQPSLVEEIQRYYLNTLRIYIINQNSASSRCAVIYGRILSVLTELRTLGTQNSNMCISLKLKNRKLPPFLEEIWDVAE

[4] = target: T2, wild-type Aedes aegypti EcR (AaEcR-DEF) (Aedes aegypti, UniProt P49880); assay: Two-hybrid gene switch assay, AaEcR-DEF in NIH3T3 cells
T2 sequence (P49880 405-776 limits assumed): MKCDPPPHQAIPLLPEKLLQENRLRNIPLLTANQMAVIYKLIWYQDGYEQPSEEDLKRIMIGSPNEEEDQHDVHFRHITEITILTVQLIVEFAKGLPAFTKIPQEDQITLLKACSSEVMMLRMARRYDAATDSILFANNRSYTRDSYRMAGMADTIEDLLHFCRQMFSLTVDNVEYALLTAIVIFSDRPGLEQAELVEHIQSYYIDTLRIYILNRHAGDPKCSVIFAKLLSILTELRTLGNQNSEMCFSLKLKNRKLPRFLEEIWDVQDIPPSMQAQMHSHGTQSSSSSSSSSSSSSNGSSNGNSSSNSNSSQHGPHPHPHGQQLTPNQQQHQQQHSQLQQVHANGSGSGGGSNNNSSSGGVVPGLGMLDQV

[5] = target: T3, wild-type Drosophila melanogaster EcR (DmEcR-DEF) (Drosophila melanogaster, UniProt P34021); assay: Two-hybrid gene switch assay, DmEcR-DEF in NIH3T3 cells; conditions: EC50, DmEcR gene switch, NIH3T3, Example One
T3 sequence (P34021 342-878 limits assumed): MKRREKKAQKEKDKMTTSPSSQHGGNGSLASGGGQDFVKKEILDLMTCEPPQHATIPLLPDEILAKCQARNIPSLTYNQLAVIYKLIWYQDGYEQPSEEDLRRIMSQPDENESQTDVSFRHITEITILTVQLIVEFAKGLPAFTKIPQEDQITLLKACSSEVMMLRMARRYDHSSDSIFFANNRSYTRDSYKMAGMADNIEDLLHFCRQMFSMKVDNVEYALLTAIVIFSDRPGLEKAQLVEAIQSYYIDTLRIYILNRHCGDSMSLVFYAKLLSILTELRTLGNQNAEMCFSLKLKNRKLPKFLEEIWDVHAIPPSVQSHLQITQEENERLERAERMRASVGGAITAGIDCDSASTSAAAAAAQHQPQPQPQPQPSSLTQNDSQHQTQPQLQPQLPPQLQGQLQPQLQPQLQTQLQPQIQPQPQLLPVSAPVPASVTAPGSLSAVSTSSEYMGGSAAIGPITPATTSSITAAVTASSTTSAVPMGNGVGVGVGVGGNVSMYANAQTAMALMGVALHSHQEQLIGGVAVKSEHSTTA

[6] = tested on: Nephotettix cincticeps EcR (NcEcR-DEF); assay: Two-hybrid gene switch assay, NcEcR-DEF in NIH3T3 cells; conditions: Example Two
[7] = Water solubility measurement (saturated solutions, 25° C., UV absorbance); conditions: 25 °C, thermodynamic from solid
Protocol: as §1

[8] = tested on: EcRs (lepidopteran and non-lepidopteran); assay: Two-hybrid gene switch assays, statements across the set of ten EcRs in NIH3T3 cells
VgEcR/RXR = VgEcR/RXR (Drosophila melanogaster, UniProt P34021, E282G/G283S/G286V)
[9] = tested on: D. melanogaster BII cell line (expresses the ecdysteroid receptor complex EcR-USP); assay: Drosophila melanogaster BII cell line bioassay (turbidometric; agonist and antagonist versions); conditions: Drosophila melanogaster, read-out: EC50 (M), BII bioassay results
[10] = target: T4, wild-type Choristoneura fumiferana EcR (CfEcR-DEF) (Choristoneura fumiferana, UniProt O77255); assay: Two-hybrid gene switch assay, wild-type CfEcR-DEF (GAL4-EcR / VP16-RXR-USP chimera, luciferase) in NIH3T3 cells
T4 sequence (O77255 219-541): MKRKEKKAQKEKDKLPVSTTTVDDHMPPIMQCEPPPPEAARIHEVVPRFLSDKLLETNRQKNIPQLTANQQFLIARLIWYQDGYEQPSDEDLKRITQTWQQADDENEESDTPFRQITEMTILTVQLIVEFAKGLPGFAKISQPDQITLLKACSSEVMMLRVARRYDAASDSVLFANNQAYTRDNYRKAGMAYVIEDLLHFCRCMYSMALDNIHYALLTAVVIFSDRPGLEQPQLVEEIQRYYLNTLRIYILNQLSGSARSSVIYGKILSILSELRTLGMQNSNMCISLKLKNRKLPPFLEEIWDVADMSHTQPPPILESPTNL
T4 sequence (P28702 299-449 partner): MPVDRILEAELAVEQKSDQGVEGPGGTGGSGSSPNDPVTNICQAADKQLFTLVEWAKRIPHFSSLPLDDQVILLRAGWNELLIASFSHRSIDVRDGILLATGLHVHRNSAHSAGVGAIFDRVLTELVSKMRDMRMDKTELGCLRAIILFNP

[11] = in human; cited from earlier work
physchem = conditions: 25 °C, water, thermodynamic from solid
Protocol: as §1

VgEcR/RXR, sequence (P34021 whole entry E282G/G283S/G286V): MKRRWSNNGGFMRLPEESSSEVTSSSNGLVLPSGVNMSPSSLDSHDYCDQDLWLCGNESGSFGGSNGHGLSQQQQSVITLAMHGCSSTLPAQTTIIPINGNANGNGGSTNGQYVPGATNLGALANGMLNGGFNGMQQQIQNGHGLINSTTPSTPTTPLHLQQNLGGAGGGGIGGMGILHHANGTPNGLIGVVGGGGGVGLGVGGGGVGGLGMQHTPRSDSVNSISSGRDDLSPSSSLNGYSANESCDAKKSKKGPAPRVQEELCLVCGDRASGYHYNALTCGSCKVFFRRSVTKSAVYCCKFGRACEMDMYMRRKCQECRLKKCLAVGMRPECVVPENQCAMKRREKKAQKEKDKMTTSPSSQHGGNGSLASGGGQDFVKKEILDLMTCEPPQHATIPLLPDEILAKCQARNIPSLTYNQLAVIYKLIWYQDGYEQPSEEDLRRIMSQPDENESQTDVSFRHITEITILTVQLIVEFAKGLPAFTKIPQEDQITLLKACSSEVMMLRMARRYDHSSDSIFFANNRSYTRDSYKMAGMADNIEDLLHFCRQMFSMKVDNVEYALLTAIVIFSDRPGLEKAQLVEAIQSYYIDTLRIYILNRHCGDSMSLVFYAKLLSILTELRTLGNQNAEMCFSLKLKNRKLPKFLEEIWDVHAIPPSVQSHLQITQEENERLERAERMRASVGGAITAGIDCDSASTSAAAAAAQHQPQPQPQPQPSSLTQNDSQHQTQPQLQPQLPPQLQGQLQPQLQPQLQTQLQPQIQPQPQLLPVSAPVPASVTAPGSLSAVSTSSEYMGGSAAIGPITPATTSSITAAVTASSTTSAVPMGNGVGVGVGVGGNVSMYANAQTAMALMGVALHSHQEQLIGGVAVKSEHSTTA
VgEcR/RXR, sequence (P19793 whole entry, further chain): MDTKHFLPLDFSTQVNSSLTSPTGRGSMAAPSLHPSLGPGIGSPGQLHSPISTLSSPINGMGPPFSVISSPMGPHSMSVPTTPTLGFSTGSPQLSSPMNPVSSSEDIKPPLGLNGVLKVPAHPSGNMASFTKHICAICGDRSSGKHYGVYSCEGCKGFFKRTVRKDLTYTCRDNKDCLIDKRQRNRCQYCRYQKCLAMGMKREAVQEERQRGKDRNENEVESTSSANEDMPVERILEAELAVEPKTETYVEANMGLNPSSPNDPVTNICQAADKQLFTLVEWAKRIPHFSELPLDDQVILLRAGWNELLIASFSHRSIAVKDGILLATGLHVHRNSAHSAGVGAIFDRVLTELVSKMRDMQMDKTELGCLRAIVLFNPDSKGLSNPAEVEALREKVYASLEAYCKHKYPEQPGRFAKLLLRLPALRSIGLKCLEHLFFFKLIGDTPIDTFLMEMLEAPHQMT

For `CC(C)CC[C@@H](O)[C@](C)(O)[C@H]1CC[C@@]2(O)C3=CC(=O)[C@@H]4C[C@@H](O)[C@@H](O)C[C@]4(C)[C@H]3CC[C@]12C` [PoA, ponasterone A], the logD [1] was 1.95, the fraction unbound [2] was 0.426 and the Papp A→B at 120 min [3] was 2.26 ×10⁻⁶ cm/s. For the same compound, the Papp B→A at 120 min [3] was 13.9 ×10⁻⁶ cm/s, the efflux ratio at 120 min [3] was 6.2 and the EC50 (Bombyx mori EcR (BmEcR)) was 110 nM. For the same compound, the RMFI (Bombyx mori EcR (BmEcR); BmEcR, Example Two) was 0.98, the EC50 ([4]; EC50, AaEcR gene switch, NIH3T3, Example One) was 1.1 nM and the “potency as activator of AaEcR” value ([4]; Example Two) was “single digit nM”. For the same compound, the fold induction at 1 µM ([4]; NIH3T3, read-out: FI (fold induction)) was 166, the “RLUs (absolute expression of the reporter gene)” value ([4]; [AaEcR]) was about 1046 and the EC50 [5] was about 66 nM. For the same compound, the EC50 [6] was 0.3 nM, the RMFI [6] was 1 and the solubility [7] was 180 µg/mL (≈ 0.387 mM). For the same compound, the “activity across the tested set of EcRs” value ([8]; FIGS. 13 and 14) was “active”, the “potency” value ([8]; all EcRs tested) was “submicromolar potency” and the EC50 ([8]; read-out: potency (EC50), Nc, Aa, and Ama EcRs) was 0.3 to 2 nM. For the same compound, the EC50 (VgEcR/RXR; EC50, VgEcR/RXR switch in 3T3 cells) was 641 nM, the EC50 (VgEcR/RXR; EC50, VgEcR/RXR system) was 641 nM and the RMFI (VgEcR/RXR; VgEcR/RXR system) was 1.5. The EC50 [9] was 2.6e-10 M, the EC50 [10] was 190 nM and the “RMFI (relative maximum fold induction, relative to diacylhydrazine 30)” value ([10]; wt-CfEcR gene switch, NIH3T3, Example One) was ~0.18 and ~0.2.

In the case of `CC(C)(O)CCC(O)C(C)(O)C1CCC2(O)C3=CC(=O)C4CC(O)C(O)CC4(C)C3CCC12C` (centres unmarked) [20E, 20-hydroxyecdysone], the logD [1] is given as 0.01, the fraction unbound [2] is given as 0.908 and the estimated half-life [11] is given as 9 h. For the same compound, the solubility (physchem) was 6700 µg/mL (≈ 13.9 mM), the Papp A→B at 120 min [3] was 0.11 ×10⁻⁶ cm/s and the Papp B→A at 120 min [3] was 0.39 ×10⁻⁶ cm/s. For the same compound, the efflux ratio at 120 min [3] was 3.5, the EC50 [9] was 7.6e-09 M and the EC50 [10] was over 33000 nM. For the same compound, the “activity in wt-CfEcR assay” value ([10]; Example One) was “essentially inactive” and the “response toward CfEcR” value ([10]; Example Two) was “virtually no response”.
